Legend:
[1] = system: coronary perfusion; assay: coronary activity / effect on coronary perfusion (general statement); assay type: in vivo
[2] = stability towards light; assay type: physicochemical; settings: compared with previously known 1,4-dihydropyridines
[3] = blood pressure decrease in canines upon sublingual administration; assay type: in vivo; settings: for Blood Pressure Decrease (%): canines
[4] = system: heart muscle; assay: myocardial (heart) perfusion in canines, electromagnetic flow meter, sublingual administration; assay type: in vivo; settings: for % Increase in Heart Perfusion / Half-life duration (of heart perfusion increase): canines
Description: The ability of the compound to assist in the perfusion action of the heart muscle can be conveniently observed in recognized pharmacological models. For example, the myocardial perfusion in canines can be observed utilizing an electromagnetic flow meter. Upon sublingual administration to canines, the following pharmacological manifestations are, for example, observed.

COC(=O)C1=C(C)NC(C)=C(C(=O)OCC(C)C)C1c1ccccc1[N+](=O)[O-] (stereo not shown) [the compound, isobutyl methyl 1,4-dihydro-2,6-dimethyl-4-(2-nitrophenyl)-3,5-pyridinedicarboxylate]
coronary activity, magnitude and length of action ([1]; compared with any 1,4-dihydropyridine presently known): significantly greater than any 1,4-dihydropyridine presently known
effect on coronary perfusion (in words) ([1]; in vivo): powerful and long acting effect on coronary perfusion
stability towards light [2]: considerably greater stability towards light than previously known 1,4-dihydropyridines
Blood Pressure Decrease (%) ([3]; 0.003 mg/kg sublingual): .phi.
Blood Pressure Decrease (%) ([3]; 0.01 mg/kg sublingual): 5%
Blood Pressure Decrease (%) ([3]; 0.1 mg/kg sublingual): 13%
lowering of blood pressure (in words) ([3]; sublingual administration): slight and equally long lasting lowering of blood pressure
% Increase in Heart Perfusion ([4]; 0.003 mg/kg sublingual): 23%
Half-life duration (of heart perfusion increase) ([4]; 0.003 mg/kg sublingual): 1.67 h
% Increase in Heart Perfusion ([4]; 0.01 mg/kg sublingual): 46%
Half-life duration (of heart perfusion increase) ([4]; 0.01 mg/kg sublingual): 2.22 h
% Increase in Heart Perfusion ([4]; 0.1 mg/kg sublingual): 142%
Half-life duration (of heart perfusion increase) ([4]; 0.1 mg/kg sublingual): 3.07 h
increase of perfusion of the heart muscle, dose dependence (in words) ([4]; sublingual administration): increases the perfusion of the heart muscle and that this action is a function of dose
onset of action after sublingual administration ([4]; sublingual administration): a few minutes after sublingual administration
total duration of action on heart muscle perfusion ([4]; sublingual administration, depending upon the dose): 2 to 6 h

— patent US4154839A, “2,6-Dimethyl -3-carboxymethoxy-4-(2-nitrophenyl)-5-carbisobutoxy-1,4-dihydropyridine” (priority 1975, dated 1979)
